This experiment concerns the target T1, Histamin-H2-Rezeptoren (Cavia porcellus, UniProt P47747).
T1 construct: Kontraktionsfrequenz des isolierten rechten Atriums des Meerschweinchens; from tissue; host or cells: isolated guinea pig (right) atrium
Kind of experiment: pA2 determination in vitro on guinea pig atrium (method of Ariens). Particulars: Meerschweinchenvorhof, H2-antagonistic activity, Molec. Pharmac., Band 1 (1964). It counts as biochemical, Meerschweinchen.

Broadly, the Kb is the equilibrium dissociation constant of an antagonist, usually derived from a functional assay.

The structures appear in SMILES notation.

T1 sequence (P47747 whole entry): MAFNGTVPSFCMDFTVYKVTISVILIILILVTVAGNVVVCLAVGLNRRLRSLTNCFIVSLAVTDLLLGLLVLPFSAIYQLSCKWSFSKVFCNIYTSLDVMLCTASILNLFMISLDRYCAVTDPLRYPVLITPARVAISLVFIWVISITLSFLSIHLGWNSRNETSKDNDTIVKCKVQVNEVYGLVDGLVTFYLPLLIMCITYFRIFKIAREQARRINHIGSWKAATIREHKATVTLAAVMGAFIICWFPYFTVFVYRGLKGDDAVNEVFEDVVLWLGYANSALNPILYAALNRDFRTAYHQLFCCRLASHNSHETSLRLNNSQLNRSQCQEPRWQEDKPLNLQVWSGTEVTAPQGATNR
Description: Die pharmakologische Aktivität dieser Verbindungen kann nach einer modifizierten Methode gemäß der DE OS 2734070 beim perfundierten Rattenmagen gezeigt werden oder durch die Ermittlung der pA2-Werte in vitro am Meerschweinchenvorhof (vergleiche Ariens, Molec. Pharmac., Band 1, Academic Press, New York, 1964) nachgewiesen werden.

Consider `CNC(=C[N+](=O)[O-])NCC=CCOc1cccc(CN2CCCCC2)c1` [Beispiel 4, 1-Methylamino-1-[4-[3-(piperidinomethyl)phenoxy]but-2-enyl] amino-2-nitro-ethylen], for which the Kb was 31.6 nM.

The record behind these values is patent EP0178503A1, “Butenyl derivatives, process for their preparation and medicines containing them” (LUDWIG HEUMANN & CO GMBH, priority 1984, dated 1986).
